How the values were obtained:
[1] = Lipophilicity coefficient RM0 by reversed phase thin layer chromatography; format: physicochemical; settings: RP-18 TLC, methanol/phosphate buffer pH=7.4
Outline: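 RP-18 F254 TLC plates developed at room temperature in methanol/100 mM phosphate buffer pH 7.4, methanol 95–65% (v/v), spots seen under UV 254 nm, in duplicate. RM = log(1/Rf − 1) regressed linearly against methanol content to give RM0.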

tyrosinase from mushroom [2] = target: T1, tyrosinase from mushroom (Agaricus bisporus, UniProt C7FF04); experiment: Inhibition of commercial mushroom tyrosinase, substrate L-tyrosine; format: biochemical; settings: read-out: Tyrosinase inhibition with L-tyrosine [%]
T1 sequence (C7FF04 2-392): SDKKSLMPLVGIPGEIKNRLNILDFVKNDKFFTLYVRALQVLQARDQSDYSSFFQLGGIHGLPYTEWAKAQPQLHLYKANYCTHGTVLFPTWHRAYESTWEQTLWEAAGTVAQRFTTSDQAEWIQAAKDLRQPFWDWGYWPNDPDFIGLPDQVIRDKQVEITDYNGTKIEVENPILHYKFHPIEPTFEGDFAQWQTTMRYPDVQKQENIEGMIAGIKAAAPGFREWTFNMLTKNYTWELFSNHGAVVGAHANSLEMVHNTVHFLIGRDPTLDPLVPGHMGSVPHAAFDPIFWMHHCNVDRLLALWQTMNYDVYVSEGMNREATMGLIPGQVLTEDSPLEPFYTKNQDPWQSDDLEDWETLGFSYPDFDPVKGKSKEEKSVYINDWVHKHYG
T1 sequence (G1K3P4 entry or part of it, further chain): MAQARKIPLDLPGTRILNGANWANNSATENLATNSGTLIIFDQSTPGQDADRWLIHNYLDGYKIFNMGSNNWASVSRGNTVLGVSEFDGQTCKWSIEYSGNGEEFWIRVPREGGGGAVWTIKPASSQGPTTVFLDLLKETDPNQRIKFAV
Outline: (§1)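 Compounds at final 500, 250 or 125 μM with tyrosinase (1 or 3 U/well) in 50 mM phosphate buffer pH 6.8; reaction started with L-tyrosine (monophenolase) or L-DOPA (diphenolase). After 25 min, absorbance at 475 nm; % inhibition versus DMSO control.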

tyrosinase from mushroom [3] = target: T1, tyrosinase from mushroom; experiment: Inhibition of commercial mushroom tyrosinase, substrate L-DOPA; format: biochemical; settings: read-out: Tyrosinase inhibition with L-DOPA [%]
Outline: as §1

[4] = tested on: B16-F10 murine melanoma cell line; experiment: Cytotoxicity (MTT) in B16-F10 murine melanoma cells; format: cell-based; settings: 48 h
Outline: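 B16-F10 cells seeded 5000/well in F10-Ham with 1% FBS, grown 24 h, then exposed to compound at various concentrations for 48 h. MTT formazan dissolved in DMSO, absorbance at 570 nm; viability as % of DMSO control (AT/AC×100).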

fibroblasts (BJ) = experiment: Safety, MTT test in fibroblasts; format: cell-based; settings: 48 hours
Method: In order to test the safety of the compounds, both normal human cells were used: keratinocytes (HaCaT), fibroblasts (BJ), primary melanocytes that occur in the skin, as well as human cancer cells: the hepatocarcinoma line HepG2 and the neuroblastoma line SH-SY5Y, which are considered a model for the assessment of hepatocytotoxicity and neurocytotoxicity. The concentrations of the tested compounds in the range of […] were used in the studies. The cell lines used in the research were purchased from the American Type Culture Collection (ATCC) and were cultured in media recommended by the manufacturer with the addition of FBS and antibiotics in an incubator ensuring appropriate culture conditions, i.e. humidity, temperature and CO2 concentration. Cells were seeded into multiwell plates and incubated with the test compounds for 48 hours. After this time, MTT and LDH tests were performed to assess cell viability. The MTT test is based on the ability to transform the substrate: [3-(4,5-dimethyl-2-thiazolyl)-2,5-diphenyl-2H-tetrazolium bromide into a colored product only by living cells. The absorbance at 570 nm, which corresponds to the absorption maximum for the product, is directly proportional to cell viability. The LDH test is based on testing the activity of the enzyme lactate dehydrogenase in the culture medium, which is released from cells as a result of damage to the cell membrane, e.g. as a result of cell death. Triton X-100 was used as a positive control in the test. The determination is colorimetric, the substrate is transformed by the released enzyme into a colored product, an increase in absorbance indicates a larger amount of the released enzyme, and thus confirms greater damage to cell membranes. Tables 7 and 8 present the results obtained, which correspond to the viability of cells incubated with the compounds in relation to the viability of cells constituting a control sample, i.e. incubated with the solvent (DMSO) at the same concentration as in the case of the groups tested in the MTT test or in relation to the results obtained for the Triton X-100 positive control in the LDH test. They indicate that the compounds are safe at the concentrations tested.

| SMILES | RM0 [1] | inhibition at 500 µM (tyrosinase from mushroom [2]) | inhibition at 250 µM (tyrosinase from mushroom [3]) | Cytotoxicity study in B16F10 cells, % viability ([4]; 150 μM) | Cytotoxicity study in B16F10 cells, % viability ([4]; 200 μM) | Cytotoxicity study in B16F10 cells, % viability ([4]; 250 μM) | MTT, Fibroblasts (BJ) (fibroblasts (BJ); 100 μM) | MTT, Fibroblasts (BJ) (fibroblasts (BJ); 150 μM) | MTT, Fibroblasts (BJ) (fibroblasts (BJ); 200 μM) | MTT, Fibroblasts (BJ) (fibroblasts (BJ); 250 μM) | inhibition at 500 µM (tyrosinase from mushroom [2]; 500 μM) | inhibition at 500 µM (tyrosinase from mushroom [3]; 500 μM) | inhibition at 500 µM (tyrosinase from mushroom [3]) |
| --- | --- | --- | --- | --- | --- | --- | --- | --- | --- | --- | --- | --- | --- |
| O=C(/C=C/c1ccc(Cl)cc1)NCCCCCO [Compound A-111, (2E)-3-(4-chlorophenyl)-N-(5-hydroxypentyl)prop-2-enamide] | 2.79 | 89 ± 0.98% | 59.9 ± 1.56% | 88.2% | 95.6% | 89.7% | 99.88 ± 5.25 % of solvent control | 100.94 ± 3.37 % of solvent control | 98.94 ± 4.04 % of solvent control | 94.51 ± 5.03 % of solvent control | – | – | – |
| O=C(/C=C/c1ccccc1)NCCCCCCO [H-425/21, (E)-N-(6-hydroxyhexyl)cinnamic acid amide] | 2.40 | – | – | 109.2% | 98.4% | 86.9% | – | – | – | – | 44.6 ± 5.99% | 34.6 ± 2.46% | – |
| O=C(/C=C/c1ccccc1)NCCCCCO [Compound A-133, (2E)-N-(5-hydroxypentyl)-3-phenylprop-2-enamide] | 2.15 | 58.6 ± 4.58% | – | 101.7% | 94.9% | 95.6% | 99.41 ± 5.96 % of solvent control | 91.68 ± 3.64 % of solvent control | 87.76 ± 2.71 % of solvent control | 82.50 ± 3.99 % of solvent control | – | – | 48 ± 1.83% |
| O=C(/C=C/c1ccc(Cl)cc1)NCCCO [H-330/21, (2E)-3-(4-chlorophenyl)-N-(3-hydroxypropyl)prop-2-enamide] | 1.94 | – | – | 78.6% | 82.9% | 83.9% | 100.54 ± 5.01 % of solvent control | 94.85 ± 3.51 % of solvent control | 85.52 ± 3.08 % of solvent control | 76.51 ± 1.80 % of solvent control | 82.49 ± 0.65% | 55.3 ± 1.39% | – |
| Cc1ccc(/C=C/C(=O)NCCCCCO)cc1 [H-415/21, (2E)-N-(5-hydroxypentyl)-3-(4-methylphenyl)prop-2-enamide] | 2.49 | 25 ± 5.67% | – | 85.2% | 90.3% | 75.7% | 102.12 ± 2.71 % of solvent control | 101.92 ± 2.88 % of solvent control | 96.13 ± 3.64 % of solvent control | 92.86 ± 4.30 % of solvent control | – | – | 30.4 ± 0.88% |
| O=C(/C=C/c1ccc(Cl)cc1)NCCO [H-427/21, (2E)-3-(4-chlorophenyl)-N-(2-hydroxyethyl)prop-2-enamide] | 1.93 | – | – | 73.7% | 80.2% | 77.8% | 101.82 ± 3.99 % of solvent control | 100.76 ± 3.34 % of solvent control | 100.37 ± 3.92 % of solvent control | 98.13 ± 2.81 % of solvent control | 67.5 ± 2.66% | 55.8 ± 0.77% | – |

From patent US20250263376A1, “(E)-N-CINNAMOYLAMINOALKANOLS WITH MELANOGENESIS INHIBITORY ACTIVITY” (Uniwersytet Jagiellonski, priority 2024, published 2025)
